# Test results published in PubChem BioAssay AID1963843 (Molecular Pharmacology Branch, DTP, NCI, 2024).
# Tested on: 616215-338-R-J1-PDC complex spheroid viability
# Assay: Anticancer human tumor 616215-338-R-J1-PDC patient-derived colon adenocarcinoma cell line growth inhibition [POLQ]
# Conditions: for IC50: curve of first compound; for viability, T/C: stronger effect = lower value
# Method in brief: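 Complex spheroid viability model combining PDC tumour cells with endothelial (HUVEC) and MSC stromal cells. Novobiocin, ART-558 or RP6685 were tested singly and in combination with standard and investigational anticancer drugs. Each was titrated in half-log steps from near clinical Cmax, or from 10 microM where Cmax was unknown.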
# [1] = second compound 0.0316 µM, first compound 0.0316 µM
# [2] = second compound 0.0316 µM, first compound 0.1 µM
# [3] = second compound 0.0316 µM, first compound 0.316 µM
# [4] = second compound 0.0316 µM, first compound 1 µM
# [5] = second compound 0.0316 µM, first compound 3.16 µM
# [6] = second compound 0.0316 µM, first compound 10 µM
# [7] = second compound 0.1 µM, first compound 0.0316 µM
# [8] = second compound 0.1 µM, first compound 0.1 µM
# [9] = second compound 0.1 µM, first compound 0.316 µM
# [10] = second compound 0.1 µM, first compound 1 µM
# [11] = second compound 0.1 µM, first compound 3.16 µM
# [12] = second compound 0.1 µM, first compound 10 µM
# [13] = second compound 0.316 µM, first compound 0.0316 µM
# [14] = second compound 0.316 µM, first compound 0.1 µM
# [15] = second compound 0.316 µM, first compound 0.316 µM
# [16] = second compound 0.316 µM, first compound 1 µM
# [17] = second compound 0.316 µM, first compound 3.16 µM
# [18] = second compound 0.316 µM, first compound 10 µM
# [19] = second compound 1 µM, first compound 0.0316 µM
# [20] = second compound 1 µM, first compound 0.1 µM
# [21] = second compound 1 µM, first compound 0.316 µM
# [22] = second compound 1 µM, first compound 1 µM
# [23] = second compound 1 µM, first compound 3.16 µM
# [24] = second compound 1 µM, first compound 10 µM
# [25] = second compound 3.16 µM, first compound 0.0316 µM
# [26] = second compound 3.16 µM, first compound 0.1 µM
# [27] = second compound 3.16 µM, first compound 0.316 µM
# [28] = second compound 3.16 µM, first compound 1 µM
# [29] = second compound 3.16 µM, first compound 3.16 µM
# [30] = second compound 3.16 µM, first compound 10 µM
# [31] = second compound 10 µM, first compound 0.0316 µM
# [32] = second compound 10 µM, first compound 0.1 µM
# [33] = second compound 10 µM, first compound 0.316 µM
# [34] = second compound 10 µM, first compound 1 µM
# [35] = second compound 10 µM, first compound 3.16 µM
# [36] = second compound 10 µM, first compound 10 µM
# 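Note: spheroids exposed to compounds for one week before readout.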
# 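Throughout, for viability, T/C: percent viability relative to DMSO vehicle wells taken as 100%.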
structure (smiles),measurement,setting,value
O=c1[nH]cc(F)c(=O)[nH]1 + Cc1cccc(N(C)C(=O)C2C(O)CCN2c2nc(C)cc(C(F)(F)F)c2C#N)c1,IC50,second compound 0.0316 µM,> 10 µM
same,IC50,second compound 0.1 µM,> 10 µM
same,IC50,second compound 0.316 µM,> 10 µM
same,IC50,second compound 1 µM,> 10 µM
same,IC50,second compound 3.16 µM,> 10 µM
same,IC50,second compound 10 µM,> 10 µM
same,"viability, T/C",[1],92.1%
same,"viability, T/C",[2],108%
same,"viability, T/C",[3],69.8%
same,"viability, T/C",[4],68.6%
same,"viability, T/C",[5],61.2%
same,"viability, T/C",[6],56.3%
same,"viability, T/C",[7],101%
same,"viability, T/C",[8],108%
same,"viability, T/C",[9],68.7%
same,"viability, T/C",[10],61.7%
same,"viability, T/C",[11],60.1%
same,"viability, T/C",[12],63.4%
same,"viability, T/C",[13],102%
same,"viability, T/C",[14],116%
same,"viability, T/C",[15],75.6%
same,"viability, T/C",[16],57.5%
same,"viability, T/C",[17],56.9%
same,"viability, T/C",[18],66.8%
same,"viability, T/C",[19],106%
same,"viability, T/C",[20],99.7%
same,"viability, T/C",[21],68.6%
same,"viability, T/C",[22],65.1%
same,"viability, T/C",[23],56.2%
same,"viability, T/C",[24],58.2%
same,"viability, T/C",[25],99.9%
same,"viability, T/C",[26],102%
same,"viability, T/C",[27],70%
same,"viability, T/C",[28],63.6%
same,"viability, T/C",[29],59.9%
same,"viability, T/C",[30],64.2%
same,"viability, T/C",[31],97.6%
same,"viability, T/C",[32],106%
same,"viability, T/C",[33],70.3%
same,"viability, T/C",[34],54.9%
same,"viability, T/C",[35],54.5%
same,"viability, T/C",[36],59.6%
CCCS(=O)(=O)Nc1ccc(F)c(C(=O)c2c[nH]c3ncc(-c4ccc(Cl)cc4)cc23)c1F + Cc1cccc(N(C)C(=O)C2C(O)CCN2c2nc(C)cc(C(F)(F)F)c2C#N)c1,IC50,second compound 0.0316 µM,5.76 µM
same,IC50,second compound 0.1 µM,5.71 µM
same,IC50,second compound 0.316 µM,5.24 µM
same,IC50,second compound 1 µM,5.51 µM
same,IC50,second compound 3.16 µM,5.31 µM
same,IC50,second compound 10 µM,4.29 µM
same,"viability, T/C",[1],114%
same,"viability, T/C",[2],95.5%
same,"viability, T/C",[3],101%
same,"viability, T/C",[4],105%
same,"viability, T/C",[5],89.5%
same,"viability, T/C",[6],13.4%
same,"viability, T/C",[7],115%
same,"viability, T/C",[8],109%
same,"viability, T/C",[9],101%
same,"viability, T/C",[10],108%
same,"viability, T/C",[11],91%
same,"viability, T/C",[12],11.2%
same,"viability, T/C",[13],112%
same,"viability, T/C",[14],107%
same,"viability, T/C",[15],99%
same,"viability, T/C",[16],97.5%
same,"viability, T/C",[17],83.4%
same,"viability, T/C",[18],9.28%
same,"viability, T/C",[19],99.5%
same,"viability, T/C",[20],101%
same,"viability, T/C",[21],104%
same,"viability, T/C",[22],105%
same,"viability, T/C",[23],86.9%
same,"viability, T/C",[24],10.2%
same,"viability, T/C",[25],114%
same,"viability, T/C",[26],98.6%
same,"viability, T/C",[27],99.4%
same,"viability, T/C",[28],101%
same,"viability, T/C",[29],83.2%
same,"viability, T/C",[30],10%
same,"viability, T/C",[31],105%
same,"viability, T/C",[32],100%
same,"viability, T/C",[33],92.7%
same,"viability, T/C",[34],98.1%
same,"viability, T/C",[35],65.8%
same,"viability, T/C",[36],7.05%
CNCc1ccc(-c2[nH]c3cc(F)cc4c3c2CCNC4=O)cc1 + Cc1cccc(N(C)C(=O)C2C(O)CCN2c2nc(C)cc(C(F)(F)F)c2C#N)c1,IC50,second compound 0.0316 µM,> 10 µM
same,IC50,second compound 0.1 µM,> 10 µM
same,IC50,second compound 0.316 µM,> 10 µM
same,IC50,second compound 1 µM,> 10 µM
same,IC50,second compound 3.16 µM,> 10 µM
same,IC50,second compound 10 µM,> 10 µM
same,"viability, T/C",[1],96.9%
same,"viability, T/C",[2],99.2%
same,"viability, T/C",[3],105%
same,"viability, T/C",[4],105%
same,"viability, T/C",[5],106%
same,"viability, T/C",[6],86.2%
same,"viability, T/C",[7],101%
same,"viability, T/C",[8],97.7%
same,"viability, T/C",[9],95.5%
same,"viability, T/C",[10],101%
same,"viability, T/C",[11],108%
same,"viability, T/C",[12],73.8%
same,"viability, T/C",[13],99.8%
same,"viability, T/C",[14],103%
same,"viability, T/C",[15],96.6%
same,"viability, T/C",[16],105%
same,"viability, T/C",[17],105%
same,"viability, T/C",[18],72.8%
same,"viability, T/C",[19],107%
same,"viability, T/C",[20],108%
same,"viability, T/C",[21],102%
same,"viability, T/C",[22],103%
same,"viability, T/C",[23],112%
same,"viability, T/C",[24],70%
same,"viability, T/C",[25],111%
same,"viability, T/C",[26],109%
same,"viability, T/C",[27],111%
same,"viability, T/C",[28],104%
same,"viability, T/C",[29],102%
same,"viability, T/C",[30],65.4%
same,"viability, T/C",[31],122%
same,"viability, T/C",[32],105%
same,"viability, T/C",[33],109%
same,"viability, T/C",[34],107%
same,"viability, T/C",[35],108%
same,"viability, T/C",[36],74.7%
